Source: ChEMBL document CHEMBL1269000, “Synthesis and biological evaluation of [D-lysine]8cyclosporin A analogs as potential anti-HCV agents” (Bioorg Med Chem Lett, 2010)

How the values were obtained:
[1] = Cytotoxicity against human HuH7 cells assessed as release of lactate dehydrogenase; type: cell-based, Huh-7; conditions: for IC50: Homo sapiens, Huh-7; for IC90: human, HuH7 cells
[2] = tested on: Jurkat; test: Immunosuppressive activity against human Jurkat cells assessed as inhibition of phytohemagglutinin-M/phorbol myristate acetate-induced IL2 production; type: cell-based
[3] = target: Peptidyl-prolyl cis-trans isomerase A (Homo sapiens, UniProt P62937); test: Binding affinity to cyclophilin A by ELISA
Sequence of Peptidyl-prolyl cis-trans isomerase A (P62937 whole entry): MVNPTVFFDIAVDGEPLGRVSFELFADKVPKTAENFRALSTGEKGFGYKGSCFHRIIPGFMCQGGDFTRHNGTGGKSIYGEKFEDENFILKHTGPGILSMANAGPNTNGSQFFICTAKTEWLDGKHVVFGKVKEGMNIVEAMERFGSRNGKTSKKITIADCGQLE

[4] = tested on: Hepatitis C virus; test: Antiviral activity against HCV after 72 hrs by stable luciferase reporter gene assay; type: functional, organism-based, Hepacivirus hominis
[5] = target: Peptidyl-prolyl cis-trans isomerase B (Homo sapiens, UniProt P23284); test: Binding affinity to cyclophilin B by ELISA
Sequence of Peptidyl-prolyl cis-trans isomerase B (P23284 whole entry): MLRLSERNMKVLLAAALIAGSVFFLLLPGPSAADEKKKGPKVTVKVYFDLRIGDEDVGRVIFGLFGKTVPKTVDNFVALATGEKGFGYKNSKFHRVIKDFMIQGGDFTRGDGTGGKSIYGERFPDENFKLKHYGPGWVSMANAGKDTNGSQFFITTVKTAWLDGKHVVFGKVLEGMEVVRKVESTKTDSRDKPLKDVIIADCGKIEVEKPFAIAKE

| Structure (SMILES) | IC50 [1] | IC90 [1] | EC50 [2] | IC50 [3] | EC50 [4] | EC90 [4] | IC50 [5] |
| --- | --- | --- | --- | --- | --- | --- | --- |
| C/C=C/C[C@@H](C)[C@@H](O)[C@H]1C(=O)N[C@@H](CC)C(=O)N(C)CC(=O)N(C)[C@@H](CC(C)C)C(=O)N[C@@H](C(C)C)C(=O)N(C)[C@@H](CC(C)C)C(=O)N[C@@H](C)C(=O)N[C@H](CNC(=O)OC(C)(C)C)C(=O)N(C)[C@@H](CC(C)C)C(=O)N(C)[C@@H](CC(C)C)C(=O)N(C)[C@@H](C(C)C)C(=O)N1C | 1720 nM | > 10000 nM | 50 nM | 83.5 nM | 200 nM | 480 nM | 66.8 nM |
| C/C=C/C[C@@H](C)[C@@H](O)[C@H]1C(=O)N[C@@H](CC)C(=O)N(C)CC(=O)N(C)[C@@H](CC(C)C)C(=O)N[C@@H](C(C)C)C(=O)N(C)[C@@H](CC(C)C)C(=O)N[C@@H](C)C(=O)N[C@H](CCNC(=O)C(C)(C)C)C(=O)N(C)[C@@H](CC(C)C)C(=O)N(C)[C@@H](CC(C)C)C(=O)N(C)[C@@H](C(C)C)C(=O)N1C | 2020 nM | > 10000 nM | 22 nM | 31.2 nM | 140 nM | 360 nM | 26.1 nM |
| C/C=C/C[C@@H](C)[C@@H](O)[C@H]1C(=O)N[C@@H](CC)C(=O)N(C)CC(=O)N(C)[C@@H](CC(C)C)C(=O)N[C@@H](C(C)C)C(=O)N(C)[C@@H](CC(C)C)C(=O)N[C@@H](C)C(=O)N[C@H](CCCNC(=O)C(C)(C)C)C(=O)N(C)[C@@H](CC(C)C)C(=O)N(C)[C@@H](CC(C)C)C(=O)N(C)[C@@H](C(C)C)C(=O)N1C | 2070 nM | > 10000 nM | 21 nM | 26.7 nM | 120 nM | 310 nM | 30.5 nM |
| C/C=C/C[C@@H](C)[C@@H](O)[C@H]1C(=O)N[C@@H](CC)C(=O)N(C)CC(=O)N(C)[C@@H](CC(C)C)C(=O)N[C@@H](C(C)C)C(=O)N(C)[C@@H](CC(C)C)C(=O)N[C@@H](C)C(=O)N[C@H](CCCCNC(=O)C(C)(C)C)C(=O)N(C)[C@@H](CC(C)C)C(=O)N(C)[C@@H](CC(C)C)C(=O)N(C)[C@@H](C(C)C)C(=O)N1C | 2560 nM | > 10000 nM | 121 nM | 22.8 nM | 160 nM | 300 nM | 20.6 nM |
| C/C=C/C[C@@H](C)[C@@H](O)[C@H]1C(=O)N[C@@H](CC)C(=O)N(C)CC(=O)N(C)[C@@H](CC(C)C)C(=O)N[C@@H](C(C)C)C(=O)N(C)[C@@H](CC(C)C)C(=O)N[C@@H](C)C(=O)N[C@H](CC#N)C(=O)N(C)[C@@H](CC(C)C)C(=O)N(C)[C@@H](CC(C)C)C(=O)N(C)[C@@H](C(C)C)C(=O)N1C | 2820 nM | > 10000 nM | 5.1 nM | 9.12 nM | 40 nM | 140 nM | 9.45 nM |
| C/C=C/C[C@@H](C)[C@@H](O)[C@H]1C(=O)N[C@@H](CC)C(=O)N(C)CC(=O)N(C)[C@@H](CC(C)C)C(=O)N[C@@H](C(C)C)C(=O)N(C)[C@@H](CC(C)C)C(=O)N[C@@H](C)C(=O)N[C@H](CCC#N)C(=O)N(C)[C@@H](CC(C)C)C(=O)N(C)[C@@H](CC(C)C)C(=O)N(C)[C@@H](C(C)C)C(=O)N1C | 2370 nM | > 10000 nM | 12 nM | 23 nM | 100 nM | 270 nM | 24.2 nM |
| C/C=C/C[C@@H](C)[C@@H](O)[C@H]1C(=O)N[C@@H](CC)C(=O)N(C)CC(=O)N(C)[C@@H](CC(C)C)C(=O)N[C@@H](C(C)C)C(=O)N(C)[C@@H](CC(C)C)C(=O)N[C@@H](C)C(=O)N[C@H](CN)C(=O)N(C)[C@@H](CC(C)C)C(=O)N(C)[C@@H](CC(C)C)C(=O)N(C)[C@@H](C(C)C)C(=O)N1C | 4610 nM | > 10000 nM | 13 nM | 103 nM | 300 nM | 820 nM | 79.7 nM |
| C/C=C/C[C@@H](C)[C@@H](O)[C@H]1C(=O)N[C@@H](CC)C(=O)N(C)CC(=O)N(C)[C@@H](CC(C)C)C(=O)N[C@@H](C(C)C)C(=O)N(C)[C@@H](CC(C)C)C(=O)N[C@@H](C)C(=O)N[C@H](CCN)C(=O)N(C)[C@@H](CC(C)C)C(=O)N(C)[C@@H](CC(C)C)C(=O)N(C)[C@@H](C(C)C)C(=O)N1C | 5300 nM | > 10000 nM | 90 nM | 218 nM | 660 nM | 2350 nM | 151 nM |
| C/C=C/C[C@@H](C)[C@@H](O)[C@H]1C(=O)N[C@@H](CC)C(=O)N(C)CC(=O)N(C)[C@@H](CC(C)C)C(=O)N[C@@H](C(C)C)C(=O)N(C)[C@@H](CC(C)C)C(=O)N[C@@H](C)C(=O)N[C@H](CCCN)C(=O)N(C)[C@@H](CC(C)C)C(=O)N(C)[C@@H](CC(C)C)C(=O)N(C)[C@@H](C(C)C)C(=O)N1C | > 10000 nM | > 10000 nM | 111 nM | 662 nM | 1890 nM | 6740 nM | 1580 nM |
| C/C=C/C[C@@H](C)[C@@H](O)[C@H]1C(=O)N[C@@H](CC)C(=O)N(C)CC(=O)N(C)[C@@H](CC(C)C)C(=O)N[C@@H](C(C)C)C(=O)N(C)[C@@H](CC(C)C)C(=O)N[C@@H](C)C(=O)N[C@H](CCCCN)C(=O)N(C)[C@@H](CC(C)C)C(=O)N(C)[C@@H](CC(C)C)C(=O)N(C)[C@@H](C(C)C)C(=O)N1C | > 10000 nM | > 10000 nM | 94 nM | 11.1 nM | 1000 nM | 2850 nM | 12.7 nM |
| C/C=C/C[C@@H](C)[C@@H](O)[C@H]1C(=O)N[C@@H](CC)C(=O)N(C)CC(=O)N(C)[C@@H](CC(C)C)C(=O)N[C@@H](C(C)C)C(=O)N(C)[C@@H](CC(C)C)C(=O)N[C@@H](C)C(=O)N[C@H](CN(C)C)C(=O)N(C)[C@@H](CC(C)C)C(=O)N(C)[C@@H](CC(C)C)C(=O)N(C)[C@@H](C(C)C)C(=O)N1C | 2050 nM | > 10000 nM | 20 nM | 22.9 nM | 190 nM | 670 nM | 25.2 nM |
| C/C=C/C[C@@H](C)[C@@H](O)[C@H]1C(=O)N[C@@H](CC)C(=O)N(C)CC(=O)N(C)[C@@H](CC(C)C)C(=O)N[C@@H](C(C)C)C(=O)N(C)[C@@H](CC(C)C)C(=O)N[C@@H](C)C(=O)N[C@H](CCN(C)C)C(=O)N(C)[C@@H](CC(C)C)C(=O)N(C)[C@@H](CC(C)C)C(=O)N(C)[C@@H](C(C)C)C(=O)N1C | 3280 nM | > 10000 nM | 24 nM | 46 nM | 170 nM | 300 nM | 59.5 nM |
| C/C=C/C[C@@H](C)[C@@H](O)[C@H]1C(=O)N[C@@H](CC)C(=O)N(C)CC(=O)N(C)[C@@H](CC(C)C)C(=O)N[C@@H](C(C)C)C(=O)N(C)[C@@H](CC(C)C)C(=O)N[C@@H](C)C(=O)N[C@H](CCCN(C)C)C(=O)N(C)[C@@H](CC(C)C)C(=O)N(C)[C@@H](CC(C)C)C(=O)N(C)[C@@H](C(C)C)C(=O)N1C | 2150 nM | 8730 nM | 39 nM | 35.2 nM | 140 nM | 380 nM | 28.9 nM |
| C/C=C/C[C@@H](C)[C@@H](O)[C@H]1C(=O)N[C@@H](CC)C(=O)N(C)CC(=O)N(C)[C@@H](CC(C)C)C(=O)N[C@@H](C(C)C)C(=O)N(C)[C@@H](CC(C)C)C(=O)N[C@@H](C)C(=O)N[C@H](CCCCN(C)C)C(=O)N(C)[C@@H](CC(C)C)C(=O)N(C)[C@@H](CC(C)C)C(=O)N(C)[C@@H](C(C)C)C(=O)N1C | 2810 nM | > 10000 nM | 332 nM | 14 nM | 140 nM | 300 nM | 97.1 nM |
| C/C=C/C[C@@H](C)[C@@H](O)[C@H]1C(=O)N[C@@H](CC)C(=O)N(C)CC(=O)N(C)[C@@H](CC(C)C)C(=O)N[C@@H](C(C)C)C(=O)N(C)[C@@H](CC(C)C)C(=O)N[C@@H](C)C(=O)N[C@H](CN(CC)CC)C(=O)N(C)[C@@H](CC(C)C)C(=O)N(C)[C@@H](CC(C)C)C(=O)N(C)[C@@H](C(C)C)C(=O)N1C | 2680 nM | > 10000 nM | 55 nM | 140 nM | 380 nM | 950 nM | 158 nM |
| C/C=C/C[C@@H](C)[C@@H](O)[C@H]1C(=O)N[C@@H](CC)C(=O)N(C)CC(=O)N(C)[C@@H](CC(C)C)C(=O)N[C@@H](C(C)C)C(=O)N(C)[C@@H](CC(C)C)C(=O)N[C@@H](C)C(=O)N[C@H](CCN(CC)CC)C(=O)N(C)[C@@H](CC(C)C)C(=O)N(C)[C@@H](CC(C)C)C(=O)N(C)[C@@H](C(C)C)C(=O)N1C | 1500 nM | 8620 nM | 114 nM | 65.2 nM | 170 nM | 350 nM | 55.9 nM |
| C/C=C/C[C@@H](C)[C@@H](O)[C@H]1C(=O)N[C@@H](CC)C(=O)N(C)CC(=O)N(C)[C@@H](CC(C)C)C(=O)N[C@@H](C(C)C)C(=O)N(C)[C@@H](CC(C)C)C(=O)N[C@@H](C)C(=O)N[C@H](CCCN(CC)CC)C(=O)N(C)[C@@H](CC(C)C)C(=O)N(C)[C@@H](CC(C)C)C(=O)N(C)[C@@H](C(C)C)C(=O)N1C | 1820 nM | 8910 nM | 134 nM | 21.4 nM | 150 nM | 370 nM | 17.2 nM |
| C/C=C/C[C@@H](C)[C@@H](O)[C@H]1C(=O)N[C@@H](CC)C(=O)N(C)CC(=O)N(C)[C@@H](CC(C)C)C(=O)N[C@@H](C(C)C)C(=O)N(C)[C@@H](CC(C)C)C(=O)N[C@@H](C)C(=O)N[C@H](C)C(=O)N(C)[C@@H](CC(C)C)C(=O)N(C)[C@@H](CC(C)C)C(=O)N(C)[C@@H](C(C)C)C(=O)N1C [CYCLOSPORINE] | – | – | 6.7 nM | – | 370 nM | 910 nM | – |
| C/C=C/C[C@@H](C)[C@@H](O)[C@H]1C(=O)N[C@@H](CC)C(=O)N(C)[C@H](SCCN(C)C)C(=O)N(C)[C@@H](CC(C)(C)O)C(=O)N[C@@H](C(C)C)C(=O)N(C)[C@@H](CC(C)C)C(=O)N[C@@H](C)C(=O)N[C@H](C)C(=O)N(C)[C@@H](CC(C)C)C(=O)N(C)[C@@H](CC(C)C)C(=O)N(C)[C@@H](C(C)C)C(=O)N1C [SCY 635] | > 10000 nM | > 10000 nM | 4210 nM | – | 50 nM | 240 nM | 10.3 nM |
